Experimental data: article PMC12035560, “Structures of Mycobacterium tuberculosis isoprenyl diphosphate synthase Rv2173 in substrate-bound forms” (Acta Crystallographica Section F: Structural Biology …, 2025)

Target: T1, Rv2173 (Mycobacterium tuberculosis, UniProt O53507)
T1 construct: gene idsA2
T1 sequence (O53507 whole entry): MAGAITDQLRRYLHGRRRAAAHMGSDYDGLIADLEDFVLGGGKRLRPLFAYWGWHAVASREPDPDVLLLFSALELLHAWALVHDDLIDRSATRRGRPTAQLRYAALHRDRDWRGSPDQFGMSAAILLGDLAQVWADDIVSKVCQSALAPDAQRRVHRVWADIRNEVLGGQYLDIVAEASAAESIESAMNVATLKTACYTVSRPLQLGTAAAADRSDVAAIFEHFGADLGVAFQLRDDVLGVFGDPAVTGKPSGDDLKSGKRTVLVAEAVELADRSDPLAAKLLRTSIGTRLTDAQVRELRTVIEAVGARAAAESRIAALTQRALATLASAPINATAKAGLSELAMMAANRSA

Q: For CC(C)=CCOP(=O)(O)OP(=O)(O)O [DMAPP], which “X-ray crystal structure, 2.20 A, co-crystallization” value is on record?
A: Its value is “Two metal ions bind to the FARM, coordinating to the DMAPP bound in the allylic/DMAPP site”.
